According to PMC3878827, “Synthesis and biological characterisation of ^18F-SIG343 and ^18F-SIG353, novel and high selectivity σ2 radiotracers, for tumour imaging properties” (EJNMMI Research, 2013):

Legend:
σ1 receptors = biological target: T1, σ1 receptors (Rattus norvegicus, UniProt Q9R0C9); assay: Radioreceptor binding assay, σ1 (3H-(+)-pentazocine, rat brain membrane); details: determined by ANSTO LifeSciences, read-out: Affinity σ1 (Ki)
T1 construct: aliquots of diluted rat brain membrane (300 μg of protein); from tissue; host or cells: male Sprague-Dawley rat brain membrane homogenate
T1 sequence (Q9R0C9 whole entry): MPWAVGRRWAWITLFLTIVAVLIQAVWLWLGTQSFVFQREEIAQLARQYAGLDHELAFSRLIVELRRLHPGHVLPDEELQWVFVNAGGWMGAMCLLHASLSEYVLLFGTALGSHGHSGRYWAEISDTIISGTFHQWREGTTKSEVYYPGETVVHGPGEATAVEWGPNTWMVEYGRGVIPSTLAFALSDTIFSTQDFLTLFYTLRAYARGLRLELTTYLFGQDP
Method: (§1) The test compounds were solubilised in DMSO and diluted in 50 mmol/L Tris-HCl (pH 8.0). Membrane homogenates were prepared from male Sprague-Dawley rat brains as previously described. The binding of σ ligands to σ1 and σ2 receptors was determined according to literature methods with minor modification. Briefly, the percentage of inhibition was determined by incubating, in triplicate, aliquots of diluted rat brain membrane (300 μg of protein) with 10^-11 to 10^-5 mol/L concentrations of the studied drugs in 50 mmol/L Tris-HCl (pH 8.0) with ^3H-(+)-pentazocine (3 nmol/L) at 37°C for 2.5 h for σ1 receptors or with ^3H-DTG (10 nmol/L) and (+)-pentazocine (1 μmol/L) at 25°C for 1.5 h for σ2 receptors. […] After incubation, the reaction was terminated by rapid filtration using a Brandel 48-well cell harvester (Brandel, Gaithersburg, MD, USA) over Whatman GF/B glass fibre filters that were soaked in a solution of 0.5% polyethyleneimine at 4°C for at least 2 h before use. […] The filters were collected and the amount of bound radioactivity was measured using a β-scintillation counter (Tri-Carb 2100TR, Packard Instrument Co., Downers Grove, IL, USA). The percentage inhibition of the studied drugs, at concentrations of 10^-5 and 10^-7 mol/L, was also determined for the cross activity at a number of other neuroreceptors (Caliper LifeSciences, MA, USA). […]

σ2 receptors = biological target: T2, σ2 receptors (Rattus norvegicus, UniProt Q5U3Y7); assay: Radioreceptor binding assay, σ2 (3H-DTG + (+)-pentazocine, rat brain membrane); details: for Ki: rat brain membrane, 3H-DTG with (+)-pentazocine, determined by ANSTO LifeSciences, read-out: Affinity σ2 (Ki); for Selectivity σ2:σ1: ratio of Ki values, Table 2
T2 sequence (Q5U3Y7 1-176): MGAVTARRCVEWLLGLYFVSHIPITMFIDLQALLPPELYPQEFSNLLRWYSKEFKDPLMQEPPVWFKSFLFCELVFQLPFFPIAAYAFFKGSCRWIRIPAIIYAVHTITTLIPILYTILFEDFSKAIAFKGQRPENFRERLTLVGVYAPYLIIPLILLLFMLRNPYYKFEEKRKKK
Method: The test compounds were solubilised in DMSO and diluted in 50 mmol/L Tris-HCl (pH 8.0). Membrane homogenates were prepared from male Sprague-Dawley rat brains as previously described. The binding of σ ligands to σ1 and σ2 receptors was determined according to literature methods with minor modification. Briefly, the percentage of inhibition was determined by incubating, in triplicate, aliquots of diluted rat brain membrane (300 μg of protein) with 10^-11 to 10^-5 mol/L concentrations of the studied drugs in 50 mmol/L Tris-HCl (pH 8.0) with ^3H-(+)-pentazocine (3 nmol/L) at 37°C for 2.5 h for σ1 receptors or with ^3H-DTG (10 nmol/L) and (+)-pentazocine (1 μmol/L) at 25°C for 1.5 h for σ2 receptors. […] After incubation, the reaction was terminated by rapid filtration using a Brandel 48-well cell harvester (Brandel, Gaithersburg, MD, USA) over Whatman GF/B glass fibre filters that were soaked in a solution of 0.5% polyethyleneimine at 4°C for at least 2 h before use. Filters were washed three times with 5 mL of ice-cold wash buffer (50 mmol/L Tris HCl, pH 7.4). The filters were collected and the amount of bound radioactivity was measured using a β-scintillation counter (Tri-Carb 2100TR, Packard Instrument Co., Downers Grove, IL, USA). The percentage inhibition of the studied drugs, at concentrations of 10^-5 and 10^-7 mol/L, was also determined for the cross activity at a number of other neuroreceptors (Caliper LifeSciences, MA, USA). The IC50 values were then converted to apparent Ki values using the Cheng-Prusoff equation and radioligand Kd values.

Opioid, non-selective = assay: Cross activity at neuroreceptors (Caliper LifeSciences): opioid; assay type: binding; details: determined by Caliper LifeSciences; read-out: Affinity Opioid, non-selective (IC50)
Method: as §1

Dopamine, non-selective = assay: Cross activity at neuroreceptors (Caliper LifeSciences): dopamine; assay type: binding; details: determined by Caliper LifeSciences; read-out: Affinity Dopamine, non-selective (IC50)
Method: as §1

Serotonin, non-selective = assay: Cross activity at neuroreceptors (Caliper LifeSciences): serotonin; assay type: binding; details: determined by Caliper LifeSciences; read-out: Affinity Serotonin, non-selective (IC50)
Method: as §1

CB1, non-selective = biological target: T3, CB1, non-selective (Homo sapiens, UniProt P21554); assay: Cross activity at neuroreceptors (Caliper LifeSciences): CB1; assay type: binding; details: determined by Caliper LifeSciences; read-out: Affinity CB1, non-selective (IC50)
T3 construct: Caliper LifeSciences
T3 sequence (P21554 whole entry): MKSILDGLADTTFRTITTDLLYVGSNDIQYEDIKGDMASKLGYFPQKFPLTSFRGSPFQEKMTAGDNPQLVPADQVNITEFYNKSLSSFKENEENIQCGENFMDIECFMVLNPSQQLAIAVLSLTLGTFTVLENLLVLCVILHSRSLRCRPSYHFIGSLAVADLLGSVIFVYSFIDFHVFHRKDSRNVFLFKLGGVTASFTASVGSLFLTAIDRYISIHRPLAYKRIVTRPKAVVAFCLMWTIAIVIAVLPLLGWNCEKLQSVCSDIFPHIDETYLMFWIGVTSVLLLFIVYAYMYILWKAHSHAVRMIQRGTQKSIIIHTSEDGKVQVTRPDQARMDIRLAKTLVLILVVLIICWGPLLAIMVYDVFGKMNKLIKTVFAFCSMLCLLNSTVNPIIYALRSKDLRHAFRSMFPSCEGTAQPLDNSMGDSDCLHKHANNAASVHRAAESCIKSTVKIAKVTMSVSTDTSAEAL
Method: as §1

[1] = biological target: Muscarinic, non-selective; assay: Cross activity at neuroreceptors (Caliper LifeSciences): muscarinic; assay type: binding; details: determined by Caliper LifeSciences; read-out: Affinity Muscarinic, non-selective (IC50)
Method: as §1

[2] = Lipophilicity by RP-HPLC (logP7.5); assay type: physicochemical; details: logP7.5, phosphate buffer pH 7.5
Method: The lipophilicity of SIG343 and SIG353 were assessed using RP-HPLC by determining the logP7.5 value using literature procedures.

[3] = rats, intravenous bolus; cited from earlier work

| SMILES | Ki (σ1 receptors) [µM] | Ki (σ2 receptors) [µM] | Selectivity σ2:σ1 (σ2 receptors) | IC50 (Opioid, non-selective) [µM] | IC50 (Dopamine, non-selective) [µM] | IC50 (Serotonin, non-selective) [µM] | IC50 (CB1, non-selective) [µM] | IC50 [1] [µM] | chromatographic logP [2] | Terminal half-life [3] [h] |
| --- | --- | --- | --- | --- | --- | --- | --- | --- | --- | --- |
| COc1cc2c(cc1OC)CN(CCCCN1C(=O)c3ccc(F)cc3C1=O)CC2 [SIG343, 2-(4-(6,7-Dimethoxy-3,4-dihydroisoquinolin-2(1H)-yl)butyl)-5-fluoroisoindoline-1,3-dione] | 1.6 | 0.008 | 200 | > 10 | > 10 | > 10 | > 10 | > 10 | 3.11 ± 0.08 |  |
| COc1cc2c(cc1OC)CN(CCCCCN1C(=O)c3ccc(F)cc3C1=O)CC2 [SIG353, 2-(5-(6,7-Dimethoxy-3,4-dihydroisoquinolin-2(1H)-yl)pentyl)-5-fluoroisoindoline-1,3-dione] | 0.266 | 0.0024 | 110 | > 10 | > 10 | > 10 | > 10 | > 10 | 3.47 ± 0.09 |  |
| O=C(CCCN1CCC(O)(c2ccc(Cl)cc2)CC1)c1ccc(F)cc1 [haloperidol] |  |  |  |  |  |  |  |  |  | 1.5 |
